Experimental data reported in US20240058450A1, “BCL-XL Inhibitory Compounds Having Low Cell Permeability and Antibody Drug Conjugates Including the Same” (AbbVie Inc., priority 2014, published 2024).
Where two headings read alike, the source gives them in different places.

How the values were obtained:
[1] = system: circulating platelets; assay: Number of circulating platelets in mice after a single intraperitoneal injection (thrombocytopenia); conditions: for thrombocytopenia: after injection of the compound; for Lowest thrombocyte count / Time to lowest count: single intraperitoneal injection
[2] = system: Molt-4 human acute lymphoblastic leukemia cells; assay: Molt-4 cell viability assay (CellTiter-Glo, 48 hours, 10% HS); format: cell-based; conditions: Homo sapiens, MOLT-4, 48 h, non-permeabilized cells
Outline: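 Cells were seeded at 12,500 per well in medium with 10% human serum and exposed to a 3-fold compound dilution series from 10 μM to 0.0005 μM. After 48 h, viable cells were quantified by CellTiter-Glo luminescence. Each concentration was run in duplicate on at least 3 occasions.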

[3] = system: permeabilized Molt-4 cells; assay: JC-1 percent depolarization assay in digitonin permeabilized Molt-4 cells; format: cell-based; conditions: Homo sapiens
Text: In addition to cytochrome c release, mitochondria undergoing apoptosis frequently lose their transmembrane mitochondrial membrane potential (Bouchier-Hayes et al., 2008, Methods 44(3): 222-228). JC-1 is a cationic carbocyanine dye that accumulates in mitochondria and fluoresces red when mitochondria are healthy and is lost when the mitochondrial membrane is compromised (percentage depolarization; Smiley et al., 1991, Proc. Natl. Acad. Sci. USA, 88: 3671-3675; Reers et al., 1991: Biochemistry, 30: 4480-4486). This loss in signal can be detected in permeabilized cells using a fluorimeter (excitation 545 nm and emission of 590 nm) and is therefore fully quantitative, enhancing both reproducibility and throughput. Specifically, digitonin permeabilized molt-4 cells (75,000/well) were treated with Bcl-xL inhibitors (1000 nM-0.00 nM) for up to 180 minutes at 32° C., with fluorescence determined every 10 minutes. At the maximal signal, the percentage depolarization can be determined for each time concentration of Bcl-xL inhibitors according to the formula:
% Depolarization=1−[(Sample−FCCP)/(DMSO−FCCP)]
DMSO and FCCP (10 μM) are used as negative and positive controls respectively (Ryan & Letai, 2013, Methods 61(2): 156-164). EC50 values were subsequently determined from the resulting concentration-response curves. Good alignment was observed when the ability of Bcl-xL inhibitors to induce cytochrome c release was compared to loss in JC-1 fluorescence in permeabilized Molt-4 cells.

[4] = target: Bcl-xL (Homo sapiens, UniProt Q07817); assay: Time Resolved-Fluorescence Resonance Energy Transfer (TR-FRET) binding assay, competition with probe F-Bak
Outline: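 Compounds compete with F-Bak probe for GST-Bcl-xL detected by Tb-anti-GST antibody. Serial dilutions from 50 μM (2× stock) incubated 2 h at room temperature, then read at 340 nm excitation, 520 and 495 nm emission. Ki by Wang's equation, tested without and with 1% human serum.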

[5] = system: permeabilized Bcl-xL dependent Molt-4 cells; assay: Cytochrome C release in selectively (digitonin) permeabilized Molt-4 cells; format: cell-based, human; conditions: Homo sapiens, MOLT-4, 4 h, 4 h treatment, read-out: Molt-4 Permeabilized Cyt C Release
Outline: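 Bcl-xL-dependent Molt-4 cells (1×10^6) treated 4 h at 37° C, 5% CO2 with compound in half-log dilutions from 3.0 to 0.01 μM. Plasma membrane selectively permeabilized with digitonin to wash out cytosolic cytochrome C released from mitochondria; release measured as apoptosis proxy.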

[6] = system: circulating platelets; conditions: mouse, in vivo
[7] = in the presence of 1% HS, read-out: Bcl-xL Binding Ki (nM, 1% HS)
[8] = without HS, read-out: Bcl-xL Binding Ki

Sequence of Bcl-xL (Q07817 whole entry): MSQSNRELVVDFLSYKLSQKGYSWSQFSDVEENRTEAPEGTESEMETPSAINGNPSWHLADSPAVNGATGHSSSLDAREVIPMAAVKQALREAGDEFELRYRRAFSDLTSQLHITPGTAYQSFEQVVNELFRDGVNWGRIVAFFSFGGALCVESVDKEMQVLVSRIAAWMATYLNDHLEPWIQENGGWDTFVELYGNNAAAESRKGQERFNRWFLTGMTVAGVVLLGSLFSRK

`CNCCOC12CC3(C)CC(C)(CC(Cn4ncc(-c5ccc(N6CCc7cccc(C(=O)Nc8nc9ccccc9s8)c7C6)nc5C(=O)O)c4C)(C3)C1)C2` [Example 1.13.7, 6-[8-(1,3-benzothiazol-2-ylcarbamoyl)-3,4-dihydroisoquinolin-2 (1H)-yl]-3-[1-({3,5-dimethyl-7-[2-(methylamino)ethoxy]tricyclo[3.3.1.1^3,7]dec-1-yl}methyl)-5-methyl-1H-pyrazol-4-yl]pyridine-2-carboxylic acid] was tested, and the “time of maximal thrombocytopenia following injection” value [1] was 6 h, the thrombocytopenia [1] was “caused thrombocytopenia” and the “platelet number after dosing” value ([1]; dose of 0.61 mg/kg) was 6*10^3 /mm^3. The “decrease of platelet number” value ([1]; dose of 0.61 mg/kg, from normal count of approximately 6*10^5/mm^3) was 100 fold, the Lowest thrombocyte count ([1]; dose 0.61 mg/kg) was 6 1/10^3 of the platelet#/mm^3 and the “Time to lowest count” value ([1]; dose 0.61 mg/kg) was 6 h.

In the case of `Cc1c(-c2ccc(N3CCc4cccc(C(=O)Nc5nc6ncccc6s5)c4C3)nc2C(=O)O)cnn1CC12CC3(C)CC(C)(C1)CC(OCCNCCS(=O)(=O)O)(C3)C2` [Example 1.23, 3-{1-[(3,5-dimethyl-7-{2-[(2-sulfoethyl)amino]ethoxy}tricyclo[3.3.1.1^3,7]dec-1-yl)methyl]-5-methyl-1H-pyrazol-4-yl}-6-[8-([1,3]thiazolo[4,5-b]pyridin-2-ylcarbamoyl)-3,4-dihydroisoquinolin-2 (1H)-yl]pyridine-2-carboxylic acid], the EC50 [2] is reported as 2720 nM, the EC50 [3] is reported as 0.24 nM and the Ki [4, 7] is reported as 0.1 nM. For the same compound, the Ki [4, 8] was 0.006 nM and the EC50 [5] was < 0.5 nM.

`CNCCOC12CC3(C)CC(C)(CC(Cn4ncc(-c5ccc(N6CCc7c(OCC(=O)O)ccc(C(=O)Nc8nc9ccccc9s8)c7C6)nc5C(=O)O)c4C)(C3)C1)C2` [Example 1.41, 6-[8-(1,3-benzothiazol-2-ylcarbamoyl)-5-(carboxymethoxy)-3,4-dihydroisoquinolin-2 (1H)-yl]-3-[1-({3,5-dimethyl-7-[2-(methylamino)ethoxy]tricyclo[3.3.1.1^3,7]dec-1-yl}methyl)-5-methyl-1H-pyrazol-4-yl]pyridine-2-carboxylic acid] gave an EC50 [2] of 473 nM, an EC50 [3] of 0.56 nM and a Ki [4, 7] of 0.81 nM. For the same compound, the Ki [4, 8] was 0.008 nM and the EC50 [5] was < 0.5 nM.

`Cc1c(-c2ccc(N3CCc4cccc(C(=O)Nc5nc6ccccc6s5)c4C3)nc2C(=O)O)cnn1CC12CC3(C)CC(C)(C1)CC(OCCNC(CO)CO)(C3)C2` [Example 1.45, 6-[8-(1,3-benzothiazol-2-ylcarbamoyl)-3,4-dihydroisoquinolin-2 (1H)-yl]-3-{1-[(3-{2-[(1,3-dihydroxypropan-2-yl)amino]ethoxy}-5,7-dimethyltricyclo[3.3.1.1^3,7]dec-1-yl)methyl]-5-methyl-1H-pyrazol-4-yl}pyridine-2-carboxylic acid] was tested, and the EC50 [2] was 19 nM, the EC50 [3] was 0.13 nM and the Ki [4, 7] was 0.134 nM. The Ki [4, 8] was < 0.001 nM.

With `Cc1c(-c2ccc(-c3cnc4cccc(C(=O)Nc5nc6ccccc6s5)c4c3)nc2C(=O)O)cnn1CC12CC3(C)CC(C)(C1)CC(OCCNCCS(=O)(=O)O)(C3)C2` [Example 1.69, 6-[5-(1,3-benzothiazol-2-ylcarbamoyl)quinolin-3-yl]-3-{1-[(3,5-dimethyl-7-{2-[(2-sulfoethyl)amino]ethoxy}tricyclo[3.3.1.1^3,7]dec-1-yl)methyl]-5-methyl-1H-pyrazol-4-yl}pyridine-2-carboxylic acid] the EC50 [3] was 0.14 nM, the Ki [4, 7] was 4.9 nM and the Ki [4, 8] was < 0.01 nM.

`Cc1c(-c2ccc(N3CCc4cccc(C(=O)Nc5nc6ccccc6s5)c4C3)nc2C(=O)O)cnn1CC12CC3(C)CC(C)(C1)CC(OCCNC[C@@H](O)[C@@H](O)[C@H](O)CO)(C3)C2` [Example 1.76, 5-{[2-([3-[(4-{6-[8-(1,3-benzothiazol-2-ylcarbamoyl)-3,4-dihydroisoquinolin-2 (1H)-yl]-2-carboxypyridin-3-yl}-5-methyl-1H-pyrazol-1-yl)methyl]-5,7-dimethyltricyclo[3.3.1.1^3,7]dec-1-yl}oxy)ethyl]amino}-5-deoxy-D-arabinitol] showed an EC50 [2] of 495 nM, an EC50 [3] of 0.26 nM and a Ki [4, 7] of 1.05 nM. For the same compound, the Ki [4, 8] was < 0.01 nM.

Work on `Cc1c(-c2ccc(N3CCc4cccc(C(=O)Nc5nc6ccccc6s5)c4C3)nc2C(=O)O)cnn1CC12CC3(C)CC(C)(C1)CC(OCCNCC[C@@H](O)[C@H](O)[C@H](O)CO)(C3)C2` [Example 1.77, 1-{[2-({3-[(4-{6-[8-(1,3-benzothiazol-2-ylcarbamoyl)-3,4-dihydroisoquinolin-2 (1H)-yl]-2-carboxypyridin-3-yl}-5-methyl-1H-pyrazol-1-yl)methyl]-5,7-dimethyltricyclo[3.3.1.1^3,7]dec-1-yl}oxy)ethyl]amino}-1,2-dideoxy-D-arabino-hexitol] yielded an EC50 [2] of 837 nM, an EC50 [3] of 0.099 nM and a Ki [4, 7] of 0.166 nM. For the same compound, the Ki [4, 8] was < 0.01 nM.

With `Cc1c(-c2ccc(N3CCc4cccc(C(=O)Nc5nc6ccccc6s5)c4C3)nc2C(=O)O)cnn1CC12CC3(C)CC(C)(C1)CC(OCCNCC(CO)CO)(C3)C2` [Example 1.79, 6-[8-(1,3-benzothiazol-2-ylcarbamoyl)-3,4-dihydroisoquinolin-2 (1H)-yl]-3-(1-{[3-(2-{[3-hydroxy-2-(hydroxymethyl)propyl]amino}ethoxy)-5,7-dimethyltricyclo[3.3.1.1^3,7]dec-1-yl]methyl}-5-methyl-1H-pyrazol-4-yl)pyridine-2-carboxylic acid] the EC50 [2] was 104 nM, the EC50 [3] was 0.14 nM and the Ki [4, 7] was 3.1 nM. The Ki [4, 8] was < 0.01 nM.

Compound `Cc1c(-c2ccc(N3CCc4cccc(C(=O)Nc5nc6ccccc6s5)c4C3)nc2C(=O)O)cnn1CC12CC3(C)CC(C)(C1)CC(OCCNCC[C@H](O)CO)(C3)C2` [Example 1.85] has an EC50 [2] of 78 nM, an EC50 [3] of 0.07 nM and a Ki [4, 7] of 0.4 nM. It also gave a Ki [4, 8] of 0.016 nM.

`Cc1c(-c2ccc(-c3ccc4cccc(C(=O)Nc5nc6ccccc6s5)c4c3)nc2C(=O)O)cnn1CC12CC3(C)CC(C)(C1)CC(OCCNCCCO[C@@H]1O[C@H](C(=O)O)[C@@H](O)[C@H](O)[C@H]1O)(C3)C2` [Example 1.87, 3-{[2-({3-[(4-{6-[8-(1,3-benzothiazol-2-ylcarbamoyl)naphthalen-2-yl]-2-carboxypyridin-3-yl)-5-methyl-1H-pyrazol-1-yl)methyl]-5,7-dimethyltricyclo[3.3.1.1^3,7]dec-1-yl}oxy)ethyl]amino}propyl beta-D-glucopyranosiduronic acid] was tested, and the EC50 [2] was 378 nM, the EC50 [3] was 0.06 nM and the Ki [4, 7] was 0.55 nM. For the same compound, the Ki [4, 8] was < 0.01 nM.

With `CNCCOC12CC3(C)CC(C)(CC(Cn4ncc(-c5ccc(-c6ccc7c[n+]([O-])cc(C(=O)Nc8nc9ccccc9s8)c7c6)nc5C(=O)O)c4C)(C3)C1)C2` [Example 1.88, 6-[4-(1,3-benzothiazol-2-ylcarbamoyl)-2-oxidoisoquinolin-6-yl]-3-[1-({3,5-dimethyl-7-[2-(methylamino)ethoxy]tricyclo[3.3.1.1^3,7]dec-1-yl}methyl)-5-methyl-1H-pyrazol-4-yl]pyridine-2-carboxylic acid] the EC50 [2] was 96 nM, the EC50 [3] was 0.21 nM and the Ki [4, 7] was 3 nM. The Ki [4, 8] was 0.127 nM.

`Cc1c(-c2ccc(N3CCc4cccc(C(=O)Nc5nc6ccccc6s5)c4C3)nc2C(=O)O)cnn1CC12CC3CC(CC(C3)C1)C2` [Example A-1331852, reference compound] was tested, and the “time of maximal thrombocytopenia following injection” value [1] was 6 h, the thrombocytopenia [1] was “caused thrombocytopenia” and the Lowest thrombocyte count ([1]; dose 25 mg/kg) was 9 1/10^3 of the platelet#/mm^3. For the same compound, the “Time to lowest count” value ([1]; dose 25 mg/kg) was 6 h.

`CC1(C)CCC(c2ccc(Cl)cc2)=C(CN2CCN(c3ccc(C(=O)NS(=O)(=O)c4ccc(N[C@H](CCN5CCOCC5)CSc5ccccc5)c(S(=O)(=O)C(F)(F)F)c4)cc3)CC2)C1` [Navitoclax] was tested, and the thrombocytopenia [6] was “caused thrombocytopenia”, the “time of maximal thrombocytopenia following injection” value [6] was 6 h and the “Time to lowest count” value ([6]; ip, 100 mg/kg) was 6 h. For the same compound, the Lowest thrombocyte count ([6]; ip, 100 mg/kg, 6 h) was 10 1/10^3 of the platelet#/mm^3.
